“Also recorded” adds a separate entry of the source. Where a SMILES comes first, the peptide text is derived from it. Bridges are numbered along the chain shown (N, C = ends).
Test system: primary murine skin fibroblasts
Assay: Cell proliferation (CellTiter 96 AQueous)
Assay type: cell-based, mouse
Conditions: 100 μM P12-3A, 10 nM insulin; not statistically significant
Procedure: FIG. 4A-F. Effects of P12-3A on cultured skin cells. A, Insulin concentrations as a function of time in logarithmically growing primary murine skin fibroblasts in the absence or presence of P12-3A (100 μM). […] Data are mean±SEM of 4 independent replications. *P<0.05, **P<0.01. B, Proliferation of cells in the absence or presence of P12-3A (100 μM). […] C,D,E, P12-3A (100 μM) potentiates insulin-induced collagen production in skin fibroblasts. Collagen production was assessed by COL1A1 mRNA levels (C), levels of hydroxyproline secreted into the medium (D), and cell-associated mature alpha-1 type I collagen levels detected by Western blotting (E). […] Migration of HaCaT cells 48 h after induction of a scratch wound in the presence of the indicated quantities of insulin and/or P12-3A (100 μM). […]
Insulin promotes wound healing and overall skin health by affecting a number of processes, including cell proliferation (2,3), cell migration (5,6), and the production and secretion of ECM components, particularly type I collagen (7-13). We therefore assessed the ability of P12-3A to influence these processes in cultured skin fibroblasts and keratinocytes. To that end, primary mouse skin fibroblasts were grown for 4 d in multiple concentrations of insulin in the presence or absence of P12-3A, and insulin concentration over time was monitored by ELISA. […]

With CC(C)C[C@H](NC(=O)[C@H](CO)NC(=O)[C@@H](N)CCC(N)=O)C(=O)N1CCC[C@H]1C(=O)N[C@@H](Cc1c[nH]c2ccccc12)C(=O)N[C@H]1CSSC[C@@H](C(=O)N[C@H](C(=O)N[C@H](C(N)=O)[C@@H](C)O)C(C)C)NC(=O)[C@H](Cc2c[nH]cn2)NC(=O)[C@@H]2CCCN2C(=O)[C@H](Cc2ccc(O)cc2)NC1=O [Peptide P12-3A] (H-QSLPWCYPHCVT-NH2; disulfide 6-10 (inferred)) the cell proliferation was “modestly increased; also recorded: No significant differences”.

Reference: US11555055B2, “Peptide inhibitors of insulin-degrading enzyme” (The Regents of the University of California, priority 2017, dated 2023)
